pIC50: −log10 of the molar value. *1 amine or outer side, *2 acyl side, *3 side chain or, on linkers, in order; H or OH if unused. Where a SMILES comes first, the peptide text is derived from it. Bridges are numbered along the chain shown (N, C = ends). [ ]: non-standard residue; d: D form. X6 = C[C@@H](O)[C@H](CC(=O)[C@H](Cc1cnc[nH]1)N[*:1])C(=O)[*:2]; Ala(4-isoquinolinyl) = N[C@@H](Cc1cncc2ccccc12)C(=O)O; Trp(βS-Me) = C[C@@H](c1c[nH]c2ccccc12)[C@H](N)C(=O)O; Phe(4-guanidino) = N=C(N)Nc1ccc(C[C@H](N)C(=O)O)cc1; X4 = O=C([C@H](Cc1cc2cc(F)ccc2[nH]1)N[*:1])[*:2]; X3 = N=C(N)NCc1ccc(C[C@H](N[*:1])C(=O)[*:2])cc1; Trp(7-aza) = N[C@@H](Cc1c[nH]c2ncccc12)C(=O)O; Phe(4-CH2NH2) = NCc1ccc(C[C@H](N)C(=O)O)cc1; mXylylene(5-F) = Fc1cc(C[*:1])cc(C[*:2])c1; X2 = O=C(CCSCc1cccc(CSCCN[*:1])c1)[*:2]; 1Nal = N[C@@H](Cc1cccc2ccccc12)C(=O)O; mXylylene = c1cc(C[*:1])cc(C[*:2])c1; aThr = C[C@H](O)[C@H](N)C(=O)O; αMeOrn = C[C@](N)(CCCN)C(=O)O; Agp = N=C(N)NC[C@H](N)C(=O)O; Chg = N[C@H](C(=O)O)C1CCCCC1; Tle = CC(C)(C)[C@H](N)C(=O)O; αMeV = CC(C)[C@](C)(N)C(=O)O; Nva = CCC[C@H](N)C(=O)O; Aib = CC(C)(N)C(=O)O; Mpa = O=C(O)CCS
Key:
[1] = target: human PCSK9 / human LDLR EGFa domain interaction (Homo sapiens, UniProt Q8NBP7); test: TR-FRET assay of inhibition of the PCSK9-LDLR protein-protein interaction; assay type: binding; conditions: 20 nM biotinylated human PCSK9 + 20 nM his-tagged human LDLR EGFa domain, 2 hours room temperature
Protocol: A time-resolved fluorescence resonance energy (TR-FRET) assay was used to measure inhibition of the PCSK9-LDLR protein-protein interaction. Briefly, 20 nM avitag-biotinylated human PCSK9 was incubated with 20 nM his-tagged human LDLR EGFa domain in the presence of 5 nM LANCE Ulight Streptavidin (Perkin Elmer) and 5 nM europium-Anti-6×His (Perkin Elmer) for 2 hours covered at room temperature in buffer containing 50 mM HEPES, 150 mM NaCl, 5 mM CaCl2, 0.01% BSA and 0.01% Surfactant P20. Compounds were tested in dose-response and concentrations giving half-maximal inhibition calculated using a 4-parameter fit equation.

PCSK9 = target: T1, PCSK9 (Homo sapiens, UniProt Q8NBP7); test: PCSK9 Alexa FRET Standard assay (displacement of AlexaFluor647-tagged cyclic peptide Reagent A); assay type: binding; conditions: 0.5 nM PCSK9, 20 nM AF cyclic peptide Reagent A
T1 construct: biotin (biotinylated)
Protocol: A solution containing 1 nM biotinylated PCSK9+2.5 nM Lance Streptavidin Europium (Strep-Eu) was made in 50 mM HEPES pH 7.4, 0.15 M NaCl, 5 mM CaCl2, 0.01% BSA, and 0.01% Surfactant P20. A separate solution containing 40 nM of the AlexaFluor tagged cyclic peptide was made in the same buffer system. An Echo was used to transfer 0.750 ul of compound to an assay plate followed by the addition of 15 ul of PCSK9+Stept-Eu and 15 ul of AF peptide. The final assay volume was 30.750 ul containing 0.5 nM PCSK9, 1.25 nM Strep-Eu, and 20 nM AF cyclic peptide. The reaction was incubated at room temperature for at least two hours prior to fluorescence measurements using an Envision Multilabel Reader. IC50 values were determined by fitting data to a sigmoidal dose-response curve using nonlinear regression. Ki was then calculated from the IC50 and the KD of AF cyclic peptide. Counts (B-counts) of the europium-labeled PCSK9 were followed to observe if compounds were […]. A fall off of the B-counts likely indicated a false positive of inhibition. Data from this procedure was reported as “A=‘numerical value’ (nanomolar)”

T1 sequence (Q8NBP7 153-692): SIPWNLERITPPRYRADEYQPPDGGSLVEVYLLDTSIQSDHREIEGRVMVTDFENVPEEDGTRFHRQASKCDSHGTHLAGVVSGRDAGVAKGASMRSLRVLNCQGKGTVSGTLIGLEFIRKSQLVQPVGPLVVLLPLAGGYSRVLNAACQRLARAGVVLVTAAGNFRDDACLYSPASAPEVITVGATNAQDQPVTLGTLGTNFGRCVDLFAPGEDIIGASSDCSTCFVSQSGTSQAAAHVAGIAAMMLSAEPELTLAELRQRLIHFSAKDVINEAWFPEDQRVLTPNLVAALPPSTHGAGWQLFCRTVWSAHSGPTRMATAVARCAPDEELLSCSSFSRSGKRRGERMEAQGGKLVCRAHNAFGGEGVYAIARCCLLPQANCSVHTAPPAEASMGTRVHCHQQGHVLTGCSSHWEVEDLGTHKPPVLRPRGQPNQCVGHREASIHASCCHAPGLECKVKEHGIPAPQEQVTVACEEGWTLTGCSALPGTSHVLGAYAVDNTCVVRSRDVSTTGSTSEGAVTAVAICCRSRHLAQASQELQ
Chain of human PCSK9 / human LDLR EGFa domain interaction (Q8NBP7 153-692): as above
Chain of human PCSK9 / human LDLR EGFa domain interaction (Q8NBP7 31-152 partner limits assumed): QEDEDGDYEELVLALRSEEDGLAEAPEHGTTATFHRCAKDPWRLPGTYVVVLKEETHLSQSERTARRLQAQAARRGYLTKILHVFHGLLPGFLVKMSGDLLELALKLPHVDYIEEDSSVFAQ

| SMILES | pIC50 [1] | pIC50 (PCSK9) |
| --- | --- | --- |
| CCC[C@@H]1NC(=O)[C@H](Cc2cncc3ccccc23)NC(=O)[C@H]([C@@H](C)O)CC(=O)[C@H](Cc2cnc[nH]2)NC(=O)[C@H](Cc2ccc(O)cc2)NC(=O)[C@H](C(C)(C)C)NC(=O)CCSCc2cccc(c2)CSC[C@@H](C(N)=O)NC(=O)[C@H]([C@@H](C)O)NC(=O)[C@H](CCC)NC(=O)[C@H](Cc2ccc(O)cc2)NC(=O)[C@H](CCC(=O)O)NC1=O [Compound 052] ([Mpa][Tle]Y[X6][Ala(4-isoquinolinyl)][Nva]EY[Nva]TC-NH2; linker 1-11 via mXylylene) | 6.00 to 7.00 | 6.00 to 7.00 |
| CCC[C@@H]1NC(=O)[C@H](Cc2c[nH]c3ncccc23)NC(=O)[C@H]([C@@H](C)O)NC(=O)[C@H](Cc2cnc[nH]2)NC(=O)[C@H](Cc2ccc(O)cc2)NC(=O)[C@H](Cc2ccc(CN)cc2)NC(=O)CCSCc2cccc(c2)CSC[C@@H](C(N)=O)NC(=O)[C@H]([C@@H](C)O)NC(=O)[C@H](CCC)NC(=O)[C@H](Cc2ccc(O)cc2)NC(=O)[C@H](CCC(=O)O)NC1=O [Compound 086] ([Mpa][Phe(4-CH2NH2)]YHT[Trp(7-aza)][Nva]EY[Nva]TC-NH2; linker 1-12 via mXylylene) | 6.00 to 7.00 | 6.00 to 7.00 |
| CCC[C@@H]1NC(=O)[C@H](Cc2c[nH]c3ncccc23)NC(=O)[C@H]([C@@H](C)O)NC(=O)[C@H](Cc2cnc[nH]2)NC(=O)[C@H](Cc2ccc(O)cc2)NC(=O)[C@H]([C@@H](C)c2c[nH]c3ccccc23)NC(=O)CCSCc2cccc(c2)CSC[C@@H](C(N)=O)NC(=O)[C@H]([C@@H](C)O)NC(=O)[C@H](CCC)NC(=O)[C@H](Cc2ccc(O)cc2)NC(=O)[C@H](CCC(=O)O)NC1=O [Compound 097] ([Mpa][Trp(βS-Me)]YHT[Trp(7-aza)][Nva]EY[Nva]TC-NH2; linker 1-12 via mXylylene) | 7.00 to 9.00 | 7.00 to 9.00 |
| CCC[C@@H]1NC(=O)[C@H](Cc2c[nH]c3ncccc23)NC(=O)[C@H]([C@@H](C)O)NC(=O)[C@H](Cc2cnc[nH]2)NC(=O)[C@H](Cc2ccc(O)cc2)NC(=O)[C@H](C(C)(C)C)NC(=O)[C@@H](NC(=O)[C@H](Cc2ccc(CNC(=N)N)cc2)NC(C)=O)CSCc2cccc(c2)CSC[C@@H](C(N)=O)NC(=O)[C@H]([C@@H](C)O)NC(=O)[C@H](CCC)NC(=O)[C@H](Cc2ccc(O)cc2)NC(=O)[C@H](CCC(=O)O)NC1=O [Compound 098] (Ac-[X3]C[Tle]YHT[Trp(7-aza)][Nva]EY[Nva]TC-NH2; linker 2-13 via mXylylene) | 4.30 to 4.68 | 6.00 to 7.00 |
| CC(C)[C@]1(C)NC(=O)[C@H](Cc2ccc(O)cc2)NC(=O)[C@H](C)NC(=O)C(C)(C)NC(=O)[C@H](Cc2c[nH]c3ncccc23)NC(=O)[C@H]([C@@H](C)O)NC(=O)[C@@H]2CCCN2C(=O)[C@H](Cc2ccc(O)cc2)NC(=O)[C@H](C(C)(C)C)NC(=O)CCSCc2cccc(c2)CSC[C@@H](C(N)=O)NC(=O)[C@H](CCCCN)NC1=O [Compound 019] ([Mpa][Tle]YPT[Trp(7-aza)][Aib]AY[αMeV]KC-NH2; linker 1-12 via mXylylene) | 4.30 to 4.68 | 4.92 to 6.00 |
| CCC[C@@H]1NC(=O)[C@H](Cc2ccc(O)cc2)NC(=O)[C@@H]2CCC(=O)NCCCC[C@H](NC(=O)[C@H](Cc3ccc(O)cc3)NC(=O)[C@H](C(C)(C)C)NC(=O)CCSCc3cccc(c3)CSC[C@@H](C(N)=O)NC(=O)[C@H]([C@@H](C)O)NC1=O)C(=O)N[C@@H]([C@@H](C)O)C(=O)N[C@@H](Cc1c[nH]c3ncccc13)C(=O)NC(C)(C)C(=O)N2 [Compound 110] ([Mpa][Tle]YKT[Trp(7-aza)][Aib]EY[Nva]TC-NH2; linker 1-12 via mXylylene; lactam 4-8) | 7.00 to 9.00 | 7.00 to 9.00 |
| CC(C)[C@@H]1NC(=O)CCSCc2cccc(c2)CSCCNC(=O)[C@H](C)NC(=O)[C@](C)(C(C)C)NC(=O)[C@H](Cc2ccccc2)NC(=O)[C@H](C)NC(=O)C(C)(C)NC(=O)[C@H](Cc2cccc3ccccc23)NC(=O)[C@H]([C@@H](C)O)NC(=O)[C@@H]2CCCN2C(=O)[C@H](Cc2ccccc2)NC1=O [Compound 021] (cyclo([1Nal][Aib]AF[αMeV]A[X2]VFPT)) | 6.00 to 7.00 | 7.00 to 9.00 |
| CCC[C@@H]1NC(=O)[C@H](Cc2c[nH]c3ncccc23)NC(=O)[C@H]([C@@H](C)O)NC(=O)[C@@H]2CCCCNC(=O)CC[C@H](NC1=O)C(=O)N[C@@H](Cc1ccc(O)cc1)C(=O)N[C@@H](C1CCCCC1)C(=O)N[C@@H]([C@@H](C)O)C(=O)N[C@@H](C(N)=O)CSCc1cccc(c1)CSCCC(=O)N[C@@H](C(C)(C)C)C(=O)N[C@@H](Cc1ccc(O)cc1)C(=O)N2 [Compound 107] ([Mpa][Tle]YKT[Trp(7-aza)][Nva]EY[Chg]T[dC]-NH2; linker 1-12 via mXylylene; lactam 4-8) | 7.00 to 9.00 | 7.00 to 9.00 |
| CC(=O)N[C@H]1CSCc2cccc(c2)CSC[C@H](C(N)=O)NC(=O)[C@H]([C@@H](C)O)NC(=O)[C@](C)(C(C)C)NC(=O)[C@H](Cc2ccc(O)cc2)NC(=O)[C@H](C)NC(=O)C(C)(C)NC(=O)[C@H](Cc2c[nH]c3ncccc23)NC(=O)[C@H]([C@H](C)O)NC(=O)[C@@H]2CCCN2C(=O)[C@H](Cc2ccc(O)cc2)NC(=O)[C@H](C(C)(C)C)NC1=O [Compound 029] (Ac-C[Tle]YP[aThr][Trp(7-aza)][Aib]AY[αMeV]T[dC]-NH2; linker 1-12 via mXylylene) | – | 6.00 to 7.00 |
| CC(C)[C@]1(C)NC(=O)[C@H](Cc2ccc(O)cc2)NC(=O)[C@H](C)NC(=O)C(C)(C)NC(=O)[C@H](Cc2c[nH]c3ncccc23)NC(=O)[C@H]([C@@H](C)O)NC(=O)[C@@H]2CCCN2C(=O)[C@H](Cc2ccc(O)cc2)NC(=O)[C@H](C(C)(C)C)NC(=O)CCSCc2cccc(c2)CSC[C@@H](C(N)=O)NC(=O)[C@H](CO)NC1=O [Compound 018] ([Mpa][Tle]YPT[Trp(7-aza)][Aib]AY[αMeV]SC-NH2; linker 1-12 via mXylylene) | 7.00 to 9.00 | 7.00 to 9.00 |
| CC(C)[C@]1(C)NC(=O)[C@H](Cc2ccc(O)cc2)NC(=O)[C@H](CCC(=O)O)NC(=O)C(C)(C)NC(=O)[C@H](Cc2c[nH]c3ncccc23)NC(=O)[C@H]([C@@H](C)O)NC(=O)[C@@H]2CCCN2C(=O)[C@H](Cc2ccc(O)cc2)NC(=O)[C@H](C(C)(C)C)NC(=O)CCSCc2cccc(c2)CSC[C@@H](C(N)=O)NC(=O)[C@H]([C@H](C)O)NC1=O [Compound 020] ([Mpa][Tle]YPT[Trp(7-aza)][Aib]EY[αMeV][aThr]C-NH2; linker 1-12 via mXylylene) | 4.30 to 4.68 | 4.92 to 6.00 |
| CCC[C@@H]1NC(=O)[C@H](Cc2c[nH]c3ncccc23)NC(=O)[C@H]([C@@H](C)O)NC(=O)[C@H](CNC(=N)N)NC(=O)[C@H](Cc2ccc(O)cc2)NC(=O)[C@H](Cc2cc3cc(F)ccc3[nH]2)NC(=O)[C@@H](NC(=O)[C@H](Cc2ccc(NC(=N)N)cc2)NC(C)=O)CSCc2cccc(c2)CSC[C@@H](C(N)=O)NC(=O)[C@H]([C@@H](C)O)NC(=O)[C@H](CCC)NC(=O)[C@H](Cc2ccc(O)cc2)NC(=O)[C@H](CCC(=O)O)NC1=O [Compound 091] (Ac-[Phe(4-guanidino)]C[X4]Y[Agp]T[Trp(7-aza)][Nva]EY[Nva]TC-NH2; linker 2-13 via mXylylene) | 6.00 to 7.00 | 7.00 to 9.00 |
| CC(C)[C@]1(C)NC(=O)[C@H](Cc2ccc(O)cc2)NC(=O)[C@H](C)NC(=O)[C@](C)(CCCN)NC(=O)[C@H](Cc2c[nH]c3ncccc23)NC(=O)[C@H]([C@@H](C)O)NC(=O)[C@@H]2CCCN2C(=O)[C@H](Cc2ccc(O)cc2)NC(=O)[C@H](C(C)(C)C)NC(=O)CCSCc2cccc(c2)CSC[C@H](C(N)=O)NC(=O)[C@H]([C@@H](C)O)NC1=O [Compound 025] ([Mpa][Tle]YPT[Trp(7-aza)][αMeOrn]AY[αMeV]T[dC]-NH2; linker 1-12 via mXylylene) | – | 7.00 to 9.00 |
| CC(=O)N[C@H]1CSCc2cc(F)cc(c2)CSC[C@@H](C(N)=O)NC(=O)[C@H]([C@@H](C)O)NC(=O)[C@](C)(C(C)C)NC(=O)[C@H](Cc2ccc(O)cc2)NC(=O)[C@H](C)NC(=O)C(C)(C)NC(=O)[C@H](Cc2c[nH]c3ncccc23)NC(=O)[C@H]([C@@H](C)O)NC(=O)[C@@H]2CCCN2C(=O)[C@H](Cc2ccc(O)cc2)NC(=O)[C@H](C(C)(C)C)NC1=O [Compound 026] (Ac-C[Tle]YPT[Trp(7-aza)][Aib]AY[αMeV]TC-NH2; linker 1-12 via mXylylene(5-F)) | – | 7.00 to 9.00 |
| CC(=O)N[C@H]1CSCc2cccc(c2)CSC[C@H](C(N)=O)NC(=O)[C@H]([C@@H](C)O)NC(=O)[C@](C)(C(C)C)NC(=O)[C@H](Cc2ccc(O)cc2)NC(=O)[C@H](C)NC(=O)[C@](C)(CCCN)NC(=O)[C@H](Cc2c[nH]c3ncccc23)NC(=O)[C@H]([C@@H](C)O)NC(=O)[C@@H]2CCCN2C(=O)[C@H](Cc2ccc(O)cc2)NC(=O)[C@H](C(C)(C)C)NC1=O [Compound 033] (Ac-C[Tle]YPT[Trp(7-aza)][αMeOrn]AY[αMeV]T[dC]-NH2; linker 1-12 via mXylylene) | – | 7.00 to 9.00 |
